How the values were obtained:
WT and Mll3/4 KO mESCs = test: RNA-seq of WT and Mll3/4 KO mESCs treated with LTX -/+ HPX; type: cell-based, mouse; settings: 0.3 μM LTX or 50 μM HPX alone, 48 hours; LTX effect almost completely rescued by HPX
Experimental: (§1) FIG. 3. […] (A) WT and Mll3/4 KO cells were treated with 0-2.5 μM lometrexol (LTX)−/+50 hypoxanthine (HPX) for 48 hours. CellTiter-Glo® luminescent cell viability assay was performed to determine the percentage of inhibition under these conditions. (B) WT and KO cells were treated with 0.3 μM LTX−/+50 μM HPX for 48 hours, and cells were harvested for RNA-seq. Differential gene expression analyses were performed with indicated comparisons. (C) Principal component analysis of RNA-seq in (B). (D) Hierarchical clustering heatmap showing differentially expressed genes in KO cells in comparison with WT cells.
(§2) FIG. 10. Mll3/4 KO mESCs are more sensitive to purine synthesis inhibition. (A-B) WT and Mll3/4 KO cells were treated with 0-2.5 μM lometrexol (LTX) (A) or 0-5 methotrexate (MTX) (B) for 48 hours. CellTiter-Glo® luminescent cell viability assay was performed to determine the percentage of inhibition under these conditions with three different Mll3/4 KO clones included. (C) WT and Mll3/4 KO cells were treated with 0-40 μM SHIINI for 48 hours. MTT cell viability assay was performed to determine the percentage of inhibition under these conditions with three different Mll3/4 KO clones included.
Gene count tables were constructed using HTseq (56) with Ensembl gene annotations and used as input for edgeR 3.0.8 (57). Genes with Benjamini-Hochburg adjusted p-values less than were differentially expressed. Batch effects were removed using ComB at-seq on the raw read counts (58). Pathway analysis was performed with Metascape (59).

[1] = test system: MLL4 mutant colorectal cancer cells (SW480, DLD1, HCT116, RKO); test: CellTiter-Glo viability assay in MLL4 wild type and MLL4 mutant colorectal cell lines; type: cell-based, human; settings: 72 hours; LTX 0-30 μM, Piericidin A 0-10 μM, Phenformin 0-30 mM
Mll3/4 KO mESCs [2] = test: MTT cell viability assay in WT and Mll3/4 KO mESCs; type: cell-based, mouse; settings: 0-40 μM, 48 hours; three Mll3/4 KO clones
Experimental: as §2

Mll3/4 KO mESCs [3] = test: CellTiter-Glo luminescent cell viability assay in WT and Mll3/4 KO mESCs; type: cell-based, mouse; settings: 48 hours; LTX 0-2.5 μM, MTX 0-5; three Mll3/4 KO clones
Experimental: as §1, §2

[4] = test system: CAL51 breast cancer cells; test: CellTiter-Glo viability assay in CAL51 MLL4 WT, hNTD and KO cells; type: cell-based, human
Experimental: FIG. 17. Cells lacking of MLL4 function are selectively sensitive to de novo purine synthesis inhibition. (A) Tracer levels of glutamine (M+1) in SW1417, Caco2, RKO and HCT116 cells. (B) Labeled purine metabolite levels with 15 N glutamine tracing in SW1417, Caco2, RKO and HCT116 cells. MLL4 WT cells, blue; MLL4 mutant cells, red. (C) CellTiter-Glo® luminescent cell viability assay in CAL51 MLL4 WT, heterozygous truncation mutation (hNTD), and KO cells treated with MTX (0-1 μM). (D) CAL51 WT and MLL4KO cells were treated with 0.04, or 0.4 μM MTX in the presence of H2O, 50 μM thymidine or 50 μM inosine. CellTiter-Glo® luminescent cell viability assay was performed. (E-J) Cells were infected with lentiviruses expressing shCtrl, shGART or shPAICS. Two distinct shRNAs were included for GART and PAICS. Western blot showing the knockdown of GART and PAICS in RKO, HCT116, Caco2 and HT55 cells (E). The growth rates of HCT116 (F), RKO (G), Caco2 (H) and HT55 (I) cells with shCtrl, shGART or shPAICS were measured by cell counting, and the cell number was normalized with day 0. Colony formation of the four cell lines with GART or PAICS knockdown was performed by seeding 500 or 1000 cells in the 6 well plates and stained after 10-14 days of culture with media change every three days (J).

O=c1[nH]cnc2nc[nH]c12 [HPX, hypoxanthine]
gene expression change in WT and Mll3/4 KO cells (WT and Mll3/4 KO mESCs): subtle gene expression or phenotypic change

[H]/N=C(/N)N/C(=N/[H])NCCc1ccccc1 [Phenformin]
sensitivity of MLL4 mutant cells compared with MLL4 wild type cells (growth inhibition) [1]: no sensitivity difference between MLL4 WT and mutant cells

C/C=C(\C)[C@H](O)[C@H](C)/C=C(C)/C=C/C/C(C)=C/Cc1nc(OC)c(OC)c(O)c1C [Piericidin A]
sensitivity of MLL4 mutant cells compared with MLL4 wild type cells (growth inhibition) [1]: no sensitivity difference between MLL4 WT and mutant cells

Cc1[nH]nc2c1C(c1cc(CO)cc(-c3ccccc3)c1)(C(C)C)C(C#N)=C(N)O2 (stereo not shown) [SHIN1]
sensitivity of Mll3/4 KO cells compared with WT cells (percentage of inhibition, MTT) (Mll3/4 KO mESCs [2]): enhanced sensitivity

CN(Cc1cnc2nc(N)nc(N)c2n1)c1ccc(C(=O)N[C@@H](CCC(=O)O)C(=O)O)cc1 [methotrexate, (2S)-2-[[4-[(2,4-diaminopteridin-6-yl)methyl-methylamino]benzoyl]amino]pentanedioic acid]
sensitivity of Mll3/4 KO cells compared with WT cells (percentage of inhibition of viability) (Mll3/4 KO mESCs [3]): enhanced sensitivity | rescue of cytotoxic effect on MLL4KO cells by nucleosides ([4]; 0.04 or 0.4 μM MTX with 50 μM thymidine or 50 μM inosine): rescued by inosine not thymidine | sensitivity of CAL51 cells with compromised MLL4 functions (MLL4hNTD, MLL4KO) compared with WT ([4]; MTX 0-1 μM): elevated MTX sensitivity

Source: US20230390297A1, “USE OF NUCLEOTIDE SYNTHESIS INHIBITORS FOR TARGETED THERAPY IN MLL3/4 COMPASS MUTANT CANCER” (priority 2022, published 2023)
